Results on three compounds are retold here after US20230119068A1, “METHODS FOR RAPID SYNTHESIS OF PYRANOANTHOCYANINS” (Ohio State Innovation Foundation, priority 2020, published 2023).

Series [1] in a line: Color expression of cis and trans isomers of acylated delphinidin at different pH. It is filed as physicochemical. As to conditions: for color expression: pH 4. Here is the method:
Delphinidin-3-(p-coumaroyl)-rutinoside-5-glucoside was extracted from Chinese eggplants, semi-purified and taken to 400 mg/L in methanol. Extract aliquots were placed in sealed quartz cuvettes, with the clear side facing up, and irradiated with different light sources (sunlight, D65 lamp, and UV chamber at 365 nm) for up to 112 hrs. Pigment isomerization was monitored over time on a uHPLC-PDA-MS/MS, using a pentafluorophenyl column and positive electrospray ionization on a triple quadrupole. Cis and trans-delphinidin-derivatives were isolated to compare their color stability and strength. Color was measured on a ColorQuest XE spectrophotometer, using 10° observer angle, illuminant D65, and total transmittance. Data was collected in triplicates and analyzed by two-way ANOVA.

For series [2], the system named is E. coli, S. aureus and B. cereus, and LAB. As to conditions: compared with CA and FA; cited from earlier work.

Turning to “Delphinidin-3-(p-coumaroyl)-rutinoside-5-glucoside [trans-delphinidin]”, the color expression result in series [1] was “bleached completely”.
For `O=C(O)/C=C/c1ccc(O)cc1` [pCA, p-coumaric acid], the antibacterial activity result in series [2] was “stronger antibacterial activity”.
Regarding “Delphinidin-3-(p-coumaroyl)-rutinoside-5-glucoside [cis-delphinidin]”, in series [1], the color expression entry was “noticeable color”. Moreover, the color intensity result in series [1] (pH 5) was “greater color intensity than the trans-isomer”.
